Legend:
U-87 MG GBM cells = assay: Morphology of U-87 MG GBM cells after treatment; type: cell-based; details: over-expressor of IL-13Rα2, 1 to 20 μM or equimolar concentrations
Source text: (§1) We have designed double-specificity therapeutic delivery systems, which not only specifically recognize cancer cells, but also enable intracellular distribution of anti-cancer agents to their respective sites of action, like the cytosol, mitochondria and/or nucleus. Some cationic peptides lyse negatively charged mitochondrial membranes of a eukaryotic cell, leading to initiation of caspase-3 dependent cell death. We have chosen one such peptide, (KLAKLAK)2 [SEQ ID NO:1, KK] to target the mitochondria of glioblastoma multiforme (GBM) brain tumor cells. To target GBM cells, we exploited interleukin 13 receptor alpha 2 (IL-13Rα2), an IL-13 plasma membrane receptor which is over-expressed in 75% of GBM patients. To enable intracytosolic delivery of the KK peptide mediated first by the IL-13Rα2, we use Pseudomonas exotoxin A (PE) domain II [D2] based delivery vector. D2 of PE is responsible for the processing and translocation of the internalized toxin and any other protein/agent fused to its C-terminal end from the endosome to the cytosol. Thus, we have generated single chain fusion proteins composed of IL-13, D2 and KK: IL-13.D2 and IL-13.D2.KK, respectively. These proteins were expressed in BL21 (λDE3) E. coli under the bacteriophage T7 promoter control and were further processed and purified by the FPLC system to >95% purity. […]

U-251 MG GBM cells = assay: Morphology of U-251 MG GBM cells after treatment; type: cell-based; details: over-expressor of IL-13Rα2, 1 to 20 μM or equimolar concentrations
Source text: as §1

In the case of “(KLAKLAK)2 (KLAKLAKKLAKLAK; Amphipathic antimicrobial peptide sequence) [KK peptide]”, the “effect on cell morphology” value (U-87 MG GBM cells) is reported as “did not have any measurable effect” and the “effect on cell morphology” value (U-251 MG GBM cells) is reported as “did not have any measurable effect”.
